{"source": "the NIST ThermoML archive (doi:10.1016/j.jct.2010.09.009)", "assay": "xn = mol fraction of the nth substance listed", "details": "101 kPa, Liquid, Vibrating tube method, x2 = 0", "note": "± gives the expanded uncertainty stated by the source.", "data": [{"smiles": "O", "note": "[water] + CCC[N+](CCC)(CCC)CCC.[Br-]", "values": [{"measurement": "mass density", "setting": "278.15 K", "value": "999.97 ± 0.05", "unit": "kg/m3"}, {"measurement": "mass density", "setting": "283.15 K", "value": "999.7 ± 0.05", "unit": "kg/m3"}]}]}
